Measured values as given in article PMC10244169, “Psychedelics promote plasticity by directly binding to BDNF receptor TrkB” (Nature Neuroscience, 2023).

Legend:
[1] = target: T1, TrkB:PLCγ1 colocalization (Rattus norvegicus, UniProt Q63604); assay: dSTORM/TIRF single-molecule colocalization in dendritic spines of hippocampal neurons; format: cell-based; settings: 100 nM, 1 h; for Manders colocalization coefficient, group mean (5b) / Manders colocalization coefficient, group mean (5c): averaged per neuron; for Manders colocalization coefficient, group mean (5b): vehicle 0.2835; for Manders colocalization coefficient, group mean (5c): vehicle 0.3968
T1 construct: endogenous in cells; host or cells: rat hippocampal neuronal cultures (DIV21)
T1 sequence (Q63604 32-821): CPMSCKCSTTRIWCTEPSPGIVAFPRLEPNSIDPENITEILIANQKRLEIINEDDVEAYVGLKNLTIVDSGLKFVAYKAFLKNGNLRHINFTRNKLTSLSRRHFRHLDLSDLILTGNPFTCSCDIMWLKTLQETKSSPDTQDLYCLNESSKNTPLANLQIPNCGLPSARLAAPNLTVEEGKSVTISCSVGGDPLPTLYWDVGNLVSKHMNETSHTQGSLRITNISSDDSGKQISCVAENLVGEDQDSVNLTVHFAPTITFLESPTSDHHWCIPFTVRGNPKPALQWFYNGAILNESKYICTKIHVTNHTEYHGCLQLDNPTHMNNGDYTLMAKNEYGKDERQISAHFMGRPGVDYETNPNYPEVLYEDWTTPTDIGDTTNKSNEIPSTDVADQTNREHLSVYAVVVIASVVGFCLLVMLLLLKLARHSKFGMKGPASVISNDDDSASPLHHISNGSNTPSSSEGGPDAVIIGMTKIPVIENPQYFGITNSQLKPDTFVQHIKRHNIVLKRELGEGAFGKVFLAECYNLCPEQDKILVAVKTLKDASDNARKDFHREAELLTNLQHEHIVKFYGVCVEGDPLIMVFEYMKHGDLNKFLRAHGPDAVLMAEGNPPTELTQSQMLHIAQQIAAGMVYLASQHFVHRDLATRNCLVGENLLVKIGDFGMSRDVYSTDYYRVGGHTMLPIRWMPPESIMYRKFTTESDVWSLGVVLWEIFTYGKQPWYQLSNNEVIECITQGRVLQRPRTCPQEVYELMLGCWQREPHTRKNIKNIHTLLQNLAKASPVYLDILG
Description: Then, dishes were fixed with 4% paraformaldehyde (PFA) containing 0.1 µm TetraSpeck beads (Invitrogen, T7279; 1:100). After washing with PBS, dishes were incubated with the blocking buffer (0.1% Triton X-100, 0.05% Tween-20, 10% normal donkey serum, 1% BSA and 0.1% gelatin in PBS) for 1 h at room temperature. Next, dishes were incubated with goat anti-TrkB (R&D Systems, AF1494; 1:100) and rabbit anti-PLCγ1 (Cell Signaling Technologies, 5690S; 1:100) primary antibodies diluted in detergent-free blocking buffer overnight at 4 °C. After washing with PBS, dishes were incubated with Alexa Fluor 647-conjugated donkey anti-goat (Invitrogen, A32849; 1:500) and CF568-conjugated donkey anti-rabbit (Biotium, 20098; 1:500) secondary antibodies in PBS. Dishes were washed and stored in PBS until imaging. For dSTORM/TIRF, we used fresh blinking buffer (0.5 mg ml^−1 glucose oxidase, 40 µg ml^−1 catalase, 10% glucose, 10 mM NaCl, 10 mM cysteamine and 50 mM Tris–HCl, pH 8.0). We used a Nikon Eclipse Ti-E N-STORM/TIRF microscope equipped with an ApoTIRF 100×/1.49 numerical aperture (NA) objective, a Perfect Focus System for Z focus stabilization, an Andor iXon + 897 back-illuminated EMCCD camera (512 × 512), laser lines 405 nm (100 mW), 561 nm (150 mW) and 647 nm (300 mW) and a 405/488/561/647 nm laser quad band filter cube. Image acquisition was performed with the central 256 × 256 pixels and a total of 20,000 frames (exposure time of 15 ms) for both channels using the NIS-Elements Advanced Research software (Nikon). The 405 nm laser was progressively raised to maintain a constant number of localizations per frame. After chromatic aberration correction by correlation with the fluorescent bead fiducials, fitting of the blinking events to build the single-molecule localization coordinate map and drift correction were performed using the Huygens Localizer 21.04 software (Scientific Volume Imaging). Before identifying particles, the first 512 frames of each channel were discarded, a temporal filter length (factor 30) was applied to determine background signal, and data were prefiltered through the standard deviation of a Gaussian filter (σ = 1.0). Next, a threshold calculated from the standard deviation of unfiltered data was multiplied by a factor of 0.75 for the red and 1.5 for the far-red channels and applied to distinguish particles from the background. Pixels from filtered data with values larger than the threshold were considered as candidates for single-molecule localizations. Pixels in filtered data with higher values than surrounding pixels were detected as local maxima. The least-squares fitting was applied for subpixel localization of detected particles, with a fixed full width at half maximum of the Gaussian point spread function of 256 nm. Finally, the resulting single-molecule localization coordinate maps were analyzed with Coloc-Tesseler 1.0 (ref. [79]) by an experimenter blinded to treatment to compute the Manders colocalization coefficients of TrkB (M^TrkB) and PLCγ1 (M^PLCγ1) in dendritic spines on the basis of their overlapping Voronoi diagrams.

[2] = tested on: dentate granule cells (DGCs); assay: Long-term survival of newborn dentate granule cells (BrdU); format: in vivo, mouse; settings: for Mean, figure 7b (survival of newborn dentate granule cells): LSD group; for e6h group mean: LSD
Description: WT and Y433F^+/− male mice were administered four doses of 5-bromo-2′-deoxyuridine (BrdU, 75 mg kg^−1 per injection, every 2 h) intraperitoneally to tag newborn neurons in the hippocampus and returned to their home cage. […] Four weeks later, animals were intracardially perfused with PBS followed by 4% PFA. Brains were dissected and postfixed with 4% PFA (overnight, 4 °C). Next, brains were transferred to 30% sucrose (0.1% PBS) solution and stored at 4 °C for 48–72 h. Brains were moved into disposable vinyl specimen molds (Sakura, Tissue-Tek Cryomold standard) and covered in Tissue-Tek O.C.T. Compound (Sakura). Trays were placed on dry ice and brains covered once more in TissueTec to ensure full coverage. Once frozen, samples were stored at −80 °C. Brains were sliced coronally at 40 µm thickness, collecting every sixth slice. Slices were stored in cryoprotectant fluid (30% sucrose, 30% ethylene glycol, 1% PVP-40, and 0.05 M PB) in −20 °C until staining. Every third hippocampal slice containing dentate gyrus (DG) was collected for washing with 0.1 M PBS and staining. BrdU immunofluorescence was conducted similarly as previously reported in the literature[28] with modifications. Hippocampal slices were incubated in 2.0 M HCl (30 min, 37 °C) and washed with PBS. Slices were then incubated in 0.1 M borate buffer (pH 8.0) at room temperature for 10 min, followed by further washes in PBS and 1 h incubation in 0.1% PBS blocking buffer (0.5% Triton X-100, 5% normal donkey serum, 5% normal goat serum, 1% BSA and 0.1% gelatin). Sections were incubated with primary antibodies rat anti-BrdU (Abcam, ab6326; 1:200) and mouse anti-NeuN (Millipore, MAB377; 1:1,000) for 48 h at 4 °C with gentle shaking. Slices were then washed with PBS, followed by incubation with secondary antibodies Alexa Fluor 488 donkey anti-rat (Invitrogen, A21208; 1:300) and Alexa Fluor 568 goat-anti-mouse (Invitrogen, A11004; 1:500) for 2 h at room temperature and protected from light. Slices were washed in PBS and PB before mounting with Dako fluorescence mounting medium (Agilent, S302380-2) and slides stored at 4 °C until imaging. A total of eight slices containing both hemispheres and covering the whole DG (every third slice) were imaged with a Zeiss LSM 710 confocal microscope. Fifteen optical sections with a Z-step of 2 µm were acquired per slice with a PlanApochromat 10×/0.45 M27. BrdU^+ and BrdU^+/NeuN^+ cells in the DG were counted manually by experimenters blinded to treatment and genotype using ZEN Blue 3.2. Similarly to Ma et al.[28], we estimated the number of mature neurons (BrdU^+/NeuN^+) in the DG of both hemispheres by multiplying by 6 the total count derived from every third hippocampal slice. The percentage of mature neurons over total BrdU^+ cells in the DG was also calculated.

SMILES | TrkB:PLCγ1 colocalization in dendritic spines [1] | Manders colocalization coefficient, group mean (5b) [1] | Manders colocalization coefficient, group mean (5c) [1] | number of surviving DGCs ([2]; WT mice, 4 weeks after single administration (0.1 mg kg^−1 i.p.)) | Mean, figure 7b (survival of newborn dentate granule cells) ([2]; WT mice) | e6h group mean ([2]; WT mice, n=7) | Mean Diff., figure 7b, WT:Saline vs. WT:LSD ([2]; WT mice, saline minus LSD, Bonferroni's multiple comparisons test) | e6h Mean Diff. (Saline minus LSD) ([2]; WT:Saline vs. WT:LSD, Bonferroni's multiple comparisons test) | Mean, figure 7b (survival of newborn dentate granule cells) ([2]; Y433F+/- mice) | e6h group mean ([2]; Y433F+/- mice, n=8) | Mean Diff., figure 7b, Y433F+/-:Saline vs. Y433F+/-:LSD ([2]; Y433F+/- mice, saline minus LSD, Bonferroni's multiple comparisons test) | e6h Mean Diff. (Saline minus LSD) ([2]; Y433F+/-:Saline vs. Y433F+/-:LSD, Bonferroni's multiple comparisons test) | e6h Predicted (LS) mean of LSD ([2]; column mean across WT and Y433F+/- mice) | Predicted (LS) mean of LSD, figure 7b ([2]; mean over WT and Y433F+/- mice) | Difference between predicted means (Saline - LSD), figure 7b ([2]; means over WT and Y433F+/- mice)
CCN(CC)C(=O)C1C=C2c3cccc4[nH]cc(c34)CC2N(C)C1 (stereo not drawn) [LSD, lysergic acid diethylamide] | increase TrkB:PLCγ1 colocalization in dendritic spines | 0.6227 | 0.6899 | doubles the number of surviving DGCs | 315.4 | 94.67 | -197.8 | -4.385 | 150 | 94.59 | 9.6 | 3.141 | 94.63 | 232.7 | -94.11
CN(C)CCc1c[nH]c2cccc(O)c12 [PSI, psilocin] | increase TrkB:PLCγ1 colocalization in dendritic spines | 0.5082 | 0.7477 |  |  |  |  |  |  |  |  |  |  |  | 
